{
  "source": "PubChem BioAssay AID1963976",
  "about": "(Molecular Pharmacology Branch, DTP, NCI, 2024);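 further: spheroids exposed to compounds for 7 days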",
  "system": "435261-313-R-J1-PDC tumor spheroid viability",
  "experiment": "Anticancer human tumor 435261-313-R-J1-PDC patient-derived colon adenocarcinoma cell line growth inhibition [PI3K]",
  "details": "spheroids with HUVEC and MSC; for IC50: curve of first compound; for viability, T/C: stronger effect = lower value",
  "in_short": "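Three cell types, namely tumor cells, endothelial cells and mesenchymal stem cells, formed each spheroid. Combinations with four PI3K inhibitors were screened at clinically achievable concentrations decreasing by half-log, and spheroid viability was recorded.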",
  "key": {"[1]": {"details": "second compound 0.0316 µM, first compound 0.0316 µM"}, "[2]": {"details": "second compound 0.0316 µM, first compound 0.1 µM"}, "[3]": {"details": "second compound 0.1 µM, first compound 0.0316 µM"}, "[4]": {"details": "second compound 0.1 µM, first compound 0.1 µM"}, "[5]": {"details": "second compound 0.316 µM, first compound 0.0316 µM"}, "[6]": {"details": "second compound 0.316 µM, first compound 0.1 µM"}, "[7]": {"details": "second compound 1 µM, first compound 0.0316 µM"}, "[8]": {"details": "second compound 1 µM, first compound 0.1 µM"}, "[9]": {"details": "second compound 3.16 µM, first compound 0.0316 µM"}, "[10]": {"details": "second compound 3.16 µM, first compound 0.1 µM"}, "[11]": {"details": "second compound 10 µM, first compound 0.0316 µM"}, "[12]": {"details": "second compound 10 µM, first compound 0.1 µM"}},
  "data": [
    {"smiles": "CC(=O)c1c(C)c2cnc(Nc3ccc(N4CCNCC4)cn3)nc2n(C2CCCC2)c1=O", "note": "+ CC(Nc1ncnc2nc[nH]c12)c1cc2cccc(Cl)c2c(=O)n1-c1ccccc1", "values": [
      {"measurement": "IC50", "setting": "second compound 0.0316 µM", "result": "> 0.1", "unit": "µM"},
      {"measurement": "IC50", "setting": "second compound 0.1 µM", "result": "> 0.1", "unit": "µM"},
      {"measurement": "IC50", "setting": "second compound 0.316 µM", "result": "> 0.1", "unit": "µM"},
      {"measurement": "IC50", "setting": "second compound 1 µM", "result": "> 0.1", "unit": "µM"},
      {"measurement": "IC50", "setting": "second compound 3.16 µM", "result": "> 0.1", "unit": "µM"},
      {"measurement": "IC50", "setting": "second compound 10 µM", "result": 0.0345, "unit": "µM"},
      {"measurement": "viability, T/C", "setting": "second compound 0.0316 µM, first compound 0.000316 µM", "result": 101, "unit": "%"},
      {"measurement": "viability, T/C", "setting": "second compound 0.0316 µM, first compound 0.001 µM", "result": 125, "unit": "%"},
      {"measurement": "viability, T/C", "setting": "second compound 0.0316 µM, first compound 0.00316 µM", "result": 74.8, "unit": "%"},
      {"measurement": "viability, T/C", "setting": "second compound 0.0316 µM, first compound 0.01 µM", "result": 94, "unit": "%"},
      {"measurement": "viability, T/C", "setting": "[1]", "result": 107, "unit": "%"},
      {"measurement": "viability, T/C", "setting": "[2]", "result": 84.1, "unit": "%"},
      {"measurement": "viability, T/C", "setting": "second compound 0.1 µM, first compound 0.000316 µM", "result": 77.4, "unit": "%"},
      {"measurement": "viability, T/C", "setting": "second compound 0.1 µM, first compound 0.001 µM", "result": 84, "unit": "%"},
      {"measurement": "viability, T/C", "setting": "second compound 0.1 µM, first compound 0.00316 µM", "result": 94.5, "unit": "%"},
      {"measurement": "viability, T/C", "setting": "second compound 0.1 µM, first compound 0.01 µM", "result": 101, "unit": "%"},
      {"measurement": "viability, T/C", "setting": "[3]", "result": 106, "unit": "%"},
      {"measurement": "viability, T/C", "setting": "[4]", "result": 64.9, "unit": "%"},
      {"measurement": "viability, T/C", "setting": "second compound 0.316 µM, first compound 0.000316 µM", "result": 105, "unit": "%"},
      {"measurement": "viability, T/C", "setting": "second compound 0.316 µM, first compound 0.001 µM", "result": 72.7, "unit": "%"},
      {"measurement": "viability, T/C", "setting": "second compound 0.316 µM, first compound 0.00316 µM", "result": 101, "unit": "%"},
      {"measurement": "viability, T/C", "setting": "second compound 0.316 µM, first compound 0.01 µM", "result": 90.1, "unit": "%"},
      {"measurement": "viability, T/C", "setting": "[5]", "result": 119, "unit": "%"},
      {"measurement": "viability, T/C", "setting": "[6]", "result": 69, "unit": "%"},
      {"measurement": "viability, T/C", "setting": "second compound 1 µM, first compound 0.000316 µM", "result": 81.7, "unit": "%"},
      {"measurement": "viability, T/C", "setting": "second compound 1 µM, first compound 0.001 µM", "result": 57.1, "unit": "%"},
      {"measurement": "viability, T/C", "setting": "second compound 1 µM, first compound 0.00316 µM", "result": 56.6, "unit": "%"},
      {"measurement": "viability, T/C", "setting": "second compound 1 µM, first compound 0.01 µM", "result": 92.3, "unit": "%"},
      {"measurement": "viability, T/C", "setting": "[7]", "result": 86.6, "unit": "%"},
      {"measurement": "viability, T/C", "setting": "[8]", "result": 62, "unit": "%"},
      {"measurement": "viability, T/C", "setting": "second compound 3.16 µM, first compound 0.000316 µM", "result": 52.9, "unit": "%"},
      {"measurement": "viability, T/C", "setting": "second compound 3.16 µM, first compound 0.001 µM", "result": 79, "unit": "%"},
      {"measurement": "viability, T/C", "setting": "second compound 3.16 µM, first compound 0.00316 µM", "result": 40.8, "unit": "%"},
      {"measurement": "viability, T/C", "setting": "second compound 3.16 µM, first compound 0.01 µM", "result": 63.1, "unit": "%"},
      {"measurement": "viability, T/C", "setting": "[9]", "result": 63.3, "unit": "%"},
      {"measurement": "viability, T/C", "setting": "[10]", "result": 41.3, "unit": "%"},
      {"measurement": "viability, T/C", "setting": "second compound 10 µM, first compound 0.000316 µM", "result": 44.5, "unit": "%"},
      {"measurement": "viability, T/C", "setting": "second compound 10 µM, first compound 0.001 µM", "result": 54, "unit": "%"},
      {"measurement": "viability, T/C", "setting": "second compound 10 µM, first compound 0.00316 µM", "result": 48.2, "unit": "%"},
      {"measurement": "viability, T/C", "setting": "second compound 10 µM, first compound 0.01 µM", "result": 56.1, "unit": "%"},
      {"measurement": "viability, T/C", "setting": "[11]", "result": 54.6, "unit": "%"},
      {"measurement": "viability, T/C", "setting": "[12]", "result": 32.2, "unit": "%"}
    ]},
    {"smiles": "CNC(=O)c1ccc(N2C(=S)N(c3ccc(C#N)c(C(F)(F)F)c3)C(=O)C2(C)C)cc1F", "note": "+ CC(Nc1ncnc2nc[nH]c12)c1cc2cccc(Cl)c2c(=O)n1-c1ccccc1", "values": [
      {"measurement": "IC50", "setting": "second compound 0.0316 µM", "result": "> 10", "unit": "µM"},
      {"measurement": "IC50", "setting": "second compound 0.1 µM", "result": "> 10", "unit": "µM"},
      {"measurement": "IC50", "setting": "second compound 0.316 µM", "result": "> 10", "unit": "µM"},
      {"measurement": "IC50", "setting": "second compound 1 µM", "result": "> 10", "unit": "µM"},
      {"measurement": "IC50", "setting": "second compound 3.16 µM", "result": "> 10", "unit": "µM"},
      {"measurement": "IC50", "setting": "second compound 10 µM", "result": "> 10", "unit": "µM"},
      {"measurement": "viability, T/C", "setting": "[1]", "result": 106, "unit": "%"},
      {"measurement": "viability, T/C", "setting": "[2]", "result": 70.5, "unit": "%"},
      {"measurement": "viability, T/C", "setting": "second compound 0.0316 µM, first compound 0.316 µM", "result": 72.3, "unit": "%"},
      {"measurement": "viability, T/C", "setting": "second compound 0.0316 µM, first compound 1 µM", "result": 82.8, "unit": "%"},
      {"measurement": "viability, T/C", "setting": "second compound 0.0316 µM, first compound 3.16 µM", "result": 99.8, "unit": "%"},
      {"measurement": "viability, T/C", "setting": "second compound 0.0316 µM, first compound 10 µM", "result": 74.8, "unit": "%"},
      {"measurement": "viability, T/C", "setting": "[3]", "result": 101, "unit": "%"},
      {"measurement": "viability, T/C", "setting": "[4]", "result": 90.6, "unit": "%"},
      {"measurement": "viability, T/C", "setting": "second compound 0.1 µM, first compound 0.316 µM", "result": 111, "unit": "%"},
      {"measurement": "viability, T/C", "setting": "second compound 0.1 µM, first compound 1 µM", "result": 121, "unit": "%"},
      {"measurement": "viability, T/C", "setting": "second compound 0.1 µM, first compound 3.16 µM", "result": 79.7, "unit": "%"},
      {"measurement": "viability, T/C", "setting": "second compound 0.1 µM, first compound 10 µM", "result": 65.7, "unit": "%"},
      {"measurement": "viability, T/C", "setting": "[5]", "result": 78.5, "unit": "%"},
      {"measurement": "viability, T/C", "setting": "[6]", "result": 90.4, "unit": "%"},
      {"measurement": "viability, T/C", "setting": "second compound 0.316 µM, first compound 0.316 µM", "result": 103, "unit": "%"},
      {"measurement": "viability, T/C", "setting": "second compound 0.316 µM, first compound 1 µM", "result": 79.8, "unit": "%"},
      {"measurement": "viability, T/C", "setting": "second compound 0.316 µM, first compound 3.16 µM", "result": 102, "unit": "%"},
      {"measurement": "viability, T/C", "setting": "second compound 0.316 µM, first compound 10 µM", "result": 81.8, "unit": "%"},
      {"measurement": "viability, T/C", "setting": "[7]", "result": 95.1, "unit": "%"},
      {"measurement": "viability, T/C", "setting": "[8]", "result": 97.1, "unit": "%"},
      {"measurement": "viability, T/C", "setting": "second compound 1 µM, first compound 0.316 µM", "result": 75.9, "unit": "%"},
      {"measurement": "viability, T/C", "setting": "second compound 1 µM, first compound 1 µM", "result": 86.5, "unit": "%"},
      {"measurement": "viability, T/C", "setting": "second compound 1 µM, first compound 3.16 µM", "result": 73.1, "unit": "%"},
      {"measurement": "viability, T/C", "setting": "second compound 1 µM, first compound 10 µM", "result": 66.4, "unit": "%"},
      {"measurement": "viability, T/C", "setting": "[9]", "result": 101, "unit": "%"},
      {"measurement": "viability, T/C", "setting": "[10]", "result": 91.6, "unit": "%"},
      {"measurement": "viability, T/C", "setting": "second compound 3.16 µM, first compound 0.316 µM", "result": 69.5, "unit": "%"},
      {"measurement": "viability, T/C", "setting": "second compound 3.16 µM, first compound 1 µM", "result": 64.5, "unit": "%"},
      {"measurement": "viability, T/C", "setting": "second compound 3.16 µM, first compound 3.16 µM", "result": 59.3, "unit": "%"},
      {"measurement": "viability, T/C", "setting": "second compound 3.16 µM, first compound 10 µM", "result": 67.3, "unit": "%"},
      {"measurement": "viability, T/C", "setting": "[11]", "result": 55, "unit": "%"},
      {"measurement": "viability, T/C", "setting": "[12]", "result": 44.7, "unit": "%"},
      {"measurement": "viability, T/C", "setting": "second compound 10 µM, first compound 0.316 µM", "result": 64, "unit": "%"},
      {"measurement": "viability, T/C", "setting": "second compound 10 µM, first compound 1 µM", "result": 68.6, "unit": "%"},
      {"measurement": "viability, T/C", "setting": "second compound 10 µM, first compound 3.16 µM", "result": 58.5, "unit": "%"},
      {"measurement": "viability, T/C", "setting": "second compound 10 µM, first compound 10 µM", "result": 39.8, "unit": "%"}
    ]}
  ]
}
